# From patent publication US20090270255A1 (priority 2005, published 2009)
# Read-outs that look alike come from different tables or passages of the source.
# System: Pyricularia oryzae
# Assay type: cell-based
# [1] = single active compound, conc. 1 ppm, MTP measured at 405 nm on day 7 after inoculation, 18° C.
Molecule,Observed effect (%) [1] [%],"Observed effect (%) (single active compound, conc. 4 ppm, MTP measured at 405 nm on day 7 after inoculation, 18° C.)",Observed effect (%)
"Fc1ccc(C2(Cn3cncn3)OC2c2ccccc2Cl)cc1 (stereo not shown) [Epoxiconazole, epoxiconazole]",0,,
"CC1(C)CC/C(=C\c2ccc(Cl)cc2)C1(O)Cn1cncn1 (stereo not shown) [Triticonazole, triticonazole]",3,13,
bromuconazole,,,0
